Laboratory results as given in US20230049231A1 (priority 2019, published 2023).

Legend:
hERG channel = biological target: T1, hERG channel (Homo sapiens, UniProt Q12809); assay: hERG electrophysiology, automated whole-cell patch clamp (Patchliner); type: cell-based
T1 construct: expressed in transfected cells
Description: This assay is used to evaluate the disclosed compounds' inhibition activities against the hERG channel.
CHO-K1 cells stably expressing hERG were grown in Ham's F-12 Medium with glutamine containing 10% heat-inactivated FBS, 1% penicillin/streptomycin, hygromycin (100 μg/ml) and G418 (100 μg/ml). Cells were grown in culture flasks at 37° C. in a 5% CO2-humidified incubator.
(§1) The cells were bathed in an extracellular solution containing 140 mM NaCl, 4 mM KCl, 2 mM CaCl2), 1 mM MgCl2, 5 mM glucose, and 10 mM HEPES; pH adjusted to 7.4 with NaOH; 295-305 mOsm. The internal solution contained 50 mM KCl, 10 mM NaCl, 60 mM KF, 20 mM EGTA, and 10 mM HEPES; pH adjusted to 7.2 with KOH; 285 mOsm. All compounds were dissolved in DMSO at 30 mM. Compound stock solutions were freshly diluted with external solution to concentrations of 30 nM, 100 nM, 300 nM, 1 μM, 3 μM, 10 μM, 30 μM and 100 μM. The highest content of DMSO (0.3%) was present in 100 μM.
The voltage protocol (see Table 3) was designed to simulate voltage changes during a cardiac action potential with a 300 ms depolarization to +20 mV (analogous to the plateau phase of the cardiac action potential), a repolarization for 300 ms to −50 mV (inducing a tail current) and a final step to the holding potential of −80 mV. The pulse frequency was 0.3 Hz. Control (compound-free) and compound pulse trains for each compound concentration applied contained 70 pulses.
(§2) Whole-cell current recordings and compound application were enabled by means of an automated patch clamp platform Patchliner (Nanion). EPC 10 patch clamp amplifier (HEKA) along with Patchmaster software (HEKA Elektronik Dr. Schulze GmbH) was used for data acquisition. Data were sampled at 10 kHz without filtering. Increasing compound concentrations were applied consecutively to the same cell without washouts in between.
AUC and PEAK values were obtained with Patchmaster (HEKA Elektronik Dr. Schulze GmbH). To determine IC50 the last single pulse in the pulse train corresponding to a given compound concentration was used. Obtained AUC and PEAK values in the presence of compound were normalized to control values in the absence of compound. Using Origin (OridinLab), IC50 was derived from data fit to Hill equation: Icompound/Icontrol=(100-A)/(1+([compound]/IC50)nH)+A, where IC50 is the concentration at which current inhibition is half-maximal, [compound] is the applied compound concentration, A is the fraction of current that is not blocked and nH is the Hill coefficient.

Kv1.3 potassium channel = biological target: T2, Kv1.3 potassium channel (Homo sapiens, UniProt P22001); assay: Kv1.3 potassium channel blocker activity, automated whole-cell patch clamp (Patchliner); type: cell-based
T2 construct: expressed in transfected cells
T2 sequence (P22001 whole entry): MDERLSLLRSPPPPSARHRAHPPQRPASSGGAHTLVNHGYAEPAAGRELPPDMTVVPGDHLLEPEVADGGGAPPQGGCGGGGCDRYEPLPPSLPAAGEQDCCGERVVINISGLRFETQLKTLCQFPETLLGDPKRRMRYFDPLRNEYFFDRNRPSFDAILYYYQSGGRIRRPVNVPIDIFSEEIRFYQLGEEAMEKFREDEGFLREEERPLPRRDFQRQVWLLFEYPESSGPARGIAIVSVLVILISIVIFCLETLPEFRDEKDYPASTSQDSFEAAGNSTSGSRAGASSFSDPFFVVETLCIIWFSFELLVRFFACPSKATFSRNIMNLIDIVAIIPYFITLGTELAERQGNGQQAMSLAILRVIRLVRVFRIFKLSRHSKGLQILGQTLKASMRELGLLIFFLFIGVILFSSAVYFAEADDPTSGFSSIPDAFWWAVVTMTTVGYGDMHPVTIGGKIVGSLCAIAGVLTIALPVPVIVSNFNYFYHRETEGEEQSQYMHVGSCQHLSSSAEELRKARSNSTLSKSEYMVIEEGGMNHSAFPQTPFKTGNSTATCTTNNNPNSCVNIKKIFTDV
Description: This assay is used to evaluate the disclosed compounds' activities as Kv1.3 potassium channel blockers.
CHO-K1 cells stably expressing Kv1.3 were grown in DMEM containing 10% heat-inactivated FBS, 1 mM sodium pyruvate, 2 mM L-glutamine and G418 (500 μg/ml). Cells were grown in culture flasks at 37° C. in a 5% CO2-humidified incubator.
as §1
The currents were evoked by applying 100 ms depolarizing pulses from −90 mV (holding potential) to +40 mV were applied with 0.1 Hz frequency. Control (compound-free) and compound pulse trains for each compound concentration applied contained 20 pulses.
10-second breaks were used between pulse trains (see Table 2 below).
as §2, with “(Nanion Technologies GmbH).” for “(Nanion).”, “(HEKA Elektronik Dr. Schulze GmbH)” for “(HEKA)”, “filtering. Passive leak currents were subtracted online using a P/4 procedure (HEKA Elektronik Dr. Schulze GmbH).” for “filtering.”, “between. Total compound incubation time before the next pulse train was not longer than 10 seconds. Peak current inhibition was observed during compound equilibration.” for “between.”
AUC and peak values were obtained with Patchmaster (HEKA Elektronik Dr. Schulze GmbH). To determine IC50, the last single pulse in the pulse train corresponding to a given compound concentration was used. Obtained AUC and peak values in the presence of compound were normalized to control values in the absence of compound. Using Origin (OridinLab), IC50 was derived from data fit to Hill equation: Icompound/Icontrol=(100−A)/(1+([compound]/IC50)nH)+A, where IC50 value is the concentration at which current inhibition is half-maximal, [compound] is the applied compound concentration, A is the fraction of current that is not blocked and nH is the Hill coefficient.

[1] = hERG channel, whole-cell patch clamp
[2] = Kv1.3 potassium channel, whole-cell patch clamp

T1 sequence (Q12809 whole entry): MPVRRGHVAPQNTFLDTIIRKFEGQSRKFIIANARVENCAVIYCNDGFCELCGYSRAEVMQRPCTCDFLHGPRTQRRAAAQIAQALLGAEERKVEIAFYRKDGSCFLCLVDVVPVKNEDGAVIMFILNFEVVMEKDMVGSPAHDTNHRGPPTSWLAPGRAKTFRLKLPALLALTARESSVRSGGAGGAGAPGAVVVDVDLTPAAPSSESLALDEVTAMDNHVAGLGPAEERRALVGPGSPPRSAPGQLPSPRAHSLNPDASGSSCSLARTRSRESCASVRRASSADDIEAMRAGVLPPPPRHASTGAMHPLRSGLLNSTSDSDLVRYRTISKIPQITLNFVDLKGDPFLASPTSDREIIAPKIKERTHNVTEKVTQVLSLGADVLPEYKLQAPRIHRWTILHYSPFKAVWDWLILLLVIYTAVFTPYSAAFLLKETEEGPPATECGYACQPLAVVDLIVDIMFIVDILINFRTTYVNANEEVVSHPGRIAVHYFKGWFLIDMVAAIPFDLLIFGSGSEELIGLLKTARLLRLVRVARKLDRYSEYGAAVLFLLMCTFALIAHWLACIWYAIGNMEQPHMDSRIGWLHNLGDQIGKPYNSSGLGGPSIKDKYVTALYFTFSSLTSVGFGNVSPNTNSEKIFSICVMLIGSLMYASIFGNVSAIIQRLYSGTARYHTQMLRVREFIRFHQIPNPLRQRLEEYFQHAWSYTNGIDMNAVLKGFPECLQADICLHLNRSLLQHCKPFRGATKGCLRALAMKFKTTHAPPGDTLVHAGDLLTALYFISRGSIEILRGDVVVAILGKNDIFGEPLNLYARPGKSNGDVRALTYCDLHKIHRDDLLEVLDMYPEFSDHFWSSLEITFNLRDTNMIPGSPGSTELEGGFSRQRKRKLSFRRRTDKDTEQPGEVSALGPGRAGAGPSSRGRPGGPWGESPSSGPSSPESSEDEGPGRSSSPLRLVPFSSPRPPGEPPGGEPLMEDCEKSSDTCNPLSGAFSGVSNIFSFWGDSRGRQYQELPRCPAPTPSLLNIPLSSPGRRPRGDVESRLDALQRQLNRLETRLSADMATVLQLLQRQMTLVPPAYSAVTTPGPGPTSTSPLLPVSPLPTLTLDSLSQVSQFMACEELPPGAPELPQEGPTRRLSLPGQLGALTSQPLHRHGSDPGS

Structure (SMILES)	IC50 (Kv1.3 potassium channel; [2])	IC50 (Kv1.3 potassium channel; CHO-K1 cells stably expressing Kv1.3, 100 ms pulses from -90 mV to +40 mV, 0.1 Hz)	IC50 (hERG channel; [1])	IC50 (hERG channel; CHO-K1 cells stably expressing hERG, +20 mV 300 ms, -50 mV 300 ms tail current, 0.3 Hz)
O=C1[C@@H](CO)OC[C@@H]2C[C@H](c3c(O)ccc(Cl)c3Cl)CCN12 (single isomer, unassigned) [Compound 52]		< 1 µM		> 30 µM
O=C1C[C@H](N2CC[C@H](O)C2)C[C@@H]2C[C@H](c3c(O)ccc(Cl)c3Cl)CN12 (single isomer, unassigned) [Compound 193]	< 1 µM		> 30 µM	
O=C1C[C@@H](N2CC[C@H](O)C2)C[C@@H]2C[C@H](c3c(O)ccc(Cl)c3Cl)CN12 (single isomer, unassigned) [Compound 194]	< 1 µM		> 30 µM	
O=C1C[C@@H](N2CC(O)C2)C[C@@H]2C[C@H](c3c(O)ccc(Cl)c3Cl)CN12 (single isomer, unassigned) [Compound 196]	< 1 µM		> 30 µM	
O=C1C[C@H](N2CC(O)C2)C[C@@H]2C[C@H](c3c(O)ccc(Cl)c3Cl)CN12 (single isomer, unassigned) [Compound 197]	< 1 µM		> 30 µM	
CN[C@@H]1CC(=O)N2C[C@@H](c3c(O)ccc(Cl)c3Cl)C[C@H]2C1 (single isomer, unassigned) [Compound 198]	< 1 µM		> 30 µM	
CN[C@H]1CC(=O)N2C[C@@H](c3c(O)ccc(Cl)c3Cl)C[C@H]2C1 (single isomer, unassigned) [Compound 199]	< 1 µM		> 30 µM	
CN(C)[C@@H]1CC(=O)N2C[C@@H](c3c(O)ccc(Cl)c3Cl)C[C@H]2C1 (single isomer, unassigned) [Compound 200]	< 1 µM		< 10 µM	
CN(C)[C@H]1CC(=O)N2C[C@@H](c3c(O)ccc(Cl)c3Cl)C[C@H]2C1 (single isomer, unassigned) [Compound 201]	< 1 µM		< 10 µM	
O=C1C[C@@H](NCCO)C[C@@H]2C[C@H](c3c(O)ccc(Cl)c3Cl)CN12 (single isomer, unassigned) [Compound 202]	< 1 µM		> 30 µM	
O=C1C[C@H](NCCO)C[C@@H]2C[C@H](c3c(O)ccc(Cl)c3Cl)CN12 (single isomer, unassigned) [Compound 203]	< 1 µM		> 30 µM	
CN(CCO)[C@@H]1CC(=O)N2C[C@@H](c3c(O)ccc(Cl)c3Cl)C[C@H]2C1 (single isomer, unassigned) [Compound 204]	< 1 µM		> 30 µM	

Continued, in another order:

IC50 (Kv1.3 potassium channel; [2])	IC50 (Kv1.3 potassium channel; CHO-K1 cells stably expressing Kv1.3, 100 ms pulses from -90 mV to +40 mV, 0.1 Hz)	Structure (SMILES)	IC50 (hERG channel; [1])	IC50 (hERG channel; CHO-K1 cells stably expressing hERG, +20 mV 300 ms, -50 mV 300 ms tail current, 0.3 Hz)
< 1 µM		O=C1CN(C2CC[C@@H](O)[C@H]2O)C[C@@H]2C[C@H](c3c(O)ccc(Cl)c3Cl)CN12 (relative stereo) [Compound 136, (7R,8aS)-7-(2,3-dichloro-6-hydroxyphenyl)-2-[(2S,3R)-rel-2,3-dihydroxycyclopentyl]-hexahydropyrrolo [1,2-a]pyrazin-4-one]	> 30 µM	
< 1 µM		O=C1CN([C@H]2COC[C@@H]2O)C[C@@H]2C[C@H](c3c(O)ccc(Cl)c3Cl)CN12 (relative stereo) [Compound 154, (7R,8aS)-7-(2,3-dichloro-6-hydroxyphenyl)-2-[(3S,4R)-rel-4-hydroxyoxolan-3-yl]-hexahydropyrrolo [1,2-a]pyrazin-4-one]	> 30 µM	
< 1 µM		O=C1CN([C@@H]2COC[C@H]2O)C[C@@H]2C[C@H](c3c(O)ccc(Cl)c3Cl)CN12 (relative stereo) [Compound 155, (7R,8aS)-7-(2,3-dichloro-6-hydroxyphenyl)-2-[(3R,4S)-rel-4-hydroxyoxolan-3-yl]-hexahydropyrrolo[1,2-a]pyrazin-4-one]	> 30 µM	
< 1 µM		O=C1CN([C@H]2CC[C@@H]2O)C[C@@H]2C[C@H](c3c(O)ccc(Cl)c3Cl)CN12 (relative stereo) [Compound 158, (7R,8aS)-7-(2,3-dichloro-6-hydroxyphenyl)-2-[(1R,2R)-rel-2-hydroxycyclobutyl]-hexahydropyrrolo[1,2-a]pyrazin-4-one]	> 30 µM	
< 1 µM		O=C1CN([C@@H]2CC[C@H]2O)C[C@@H]2C[C@H](c3c(O)ccc(Cl)c3Cl)CN12 (relative stereo) [Compound 159, (7R,8aS)-7-(2,3-dichloro-6-hydroxyphenyl)-2-[(1S,2S)-rel-2-hydroxycyclobutyl]-hexahydropyrrolo[1,2-a]pyrazin-4-one]	> 30 µM	
< 1 µM		C[C@H](O)[C@H](CO)N1CC(=O)N2C[C@@H](c3c(O)ccc(Cl)c3Cl)C[C@H]2C1 (relative stereo) [Compound 165, (7R,8aS)-7-(2,3-dichloro-6-hydroxyphenyl)-2-[(2S,3S)-rel-1,3-dihydroxybutan-2-yl]-hexahydropyrrolo[1,2-a]pyrazin-4-one]	> 30 µM	
< 1 µM		C[C@@H](O)[C@@H](CO)N1CC(=O)N2C[C@@H](c3c(O)ccc(Cl)c3Cl)C[C@H]2C1 (relative stereo) [Compound 166, (7R,8aS)-7-(2,3-dichloro-6-hydroxyphenyl)-2-[(2R,3R)-rel-1,3-dihydroxybutan-2-yl]-hexahydropyrrolo[1,2-a]pyrazin-4-one]	> 30 µM	
< 1 µM		O=C1C[C@H](O)[C@H](O)[C@@H]2C[C@H](c3c(O)ccc(Cl)c3Cl)CN12 (relative stereo) [Compound 225, (7S,8R)-rel-(2R, 8aS)-2-(2,3-dichloro-6-hydroxyphenyl)-7,8-dihydroxy-hexahydro-1H-indolizin-5-one]	> 30 µM	
< 1 µM		O=C1CN(C[C@@H](O)CO)C[C@@H]2C[C@H](c3c(O)ccc(Cl)c3Cl)CN12 (single isomer, unassigned) [Compound 114]	> 30 µM	
< 1 µM		C[C@H](CO)N1CC(=O)N2C[C@@H](c3c(O)ccc(Cl)c3Cl)C[C@H]2C1 (single isomer, unassigned) [Compound 116]	> 30 µM	
< 1 µM		COC[C@H](CO)N1CC(=O)N2C[C@@H](c3c(O)ccc(Cl)c3Cl)C[C@H]2C1 (single isomer, unassigned) [Compound 118]	> 30 µM	
< 1 µM		C[C@@H](C1CNC1)N1CC(=O)N2C[C@@H](c3c(O)ccc(Cl)c3Cl)C[C@H]2C1 (single isomer, unassigned) [Compound 137]	> 30 µM	
< 1 µM		N[C@H]1CC(=O)N2C[C@@H](c3c(O)ccc(Cl)c3Cl)C[C@H]2C1 (single isomer, unassigned) [Compound 189]	> 30 µM	
< 1 µM		N[C@@H]1CC(=O)N2C[C@@H](c3c(O)ccc(Cl)c3Cl)C[C@H]2C1 (single isomer, unassigned) [Compound 190]	> 30 µM	
< 1 µM		O=C1C[C@H](N2CC[C@@H](O)C2)C[C@@H]2C[C@H](c3c(O)ccc(Cl)c3Cl)CN12 (single isomer, unassigned) [Compound 191]	< 30 µM	
< 1 µM		O=C1C[C@@H](N2CC[C@@H](O)C2)C[C@@H]2C[C@H](c3c(O)ccc(Cl)c3Cl)CN12 (single isomer, unassigned) [Compound 192]	> 30 µM	
